Reference: patent US11149047B2, “Aryl imidazoles for treatment of cancer” (Aptose Biosciences Inc., priority 2017, dated 2021)

Columns and labels:
[1] = system: G4 sequences (telomere, MYC, KIT, rRNA oligos); experiment: Modified FRET assay, melting of G-quadruplex oligos; format: binding, human; conditions: FIG. 13C; COMPOUND I data at 6-hour incubation
Procedure: FRET assay and data analysis was performed as described previously and modified by using dual labeled (5′ FAM-3′ BHQ1) single-stranded oligos. Melting temperature of each oligo was assessed in the presence of vehicle DMSO or escalating concentrations of COMPOUND I, Fe(COMPOUND I)3, CX-5461, or TMPyP4 using a Roche LightCycler 96 [at 37° C. for 300 seconds followed by temperature increased in […] intervals up to 91° C. (25 steps) with 300-second total incubation time at each temperature]. Drug and oligo reaction mixes were analyzed immediately or incubated for 6 hours at room temperature and then analyzed. […] COMPOUND I data are presented for 6-hour time point.
The ability of COMPOUND I (parental monomeric form of the drug) and Fe(COMPOUND I)3 to bind and stabilize G4 sequences using a modified FRET assay was evaluated (FIGS. 21 and 22). TMPyP4, a well-known G4 ligand, and CX-5461, a clinical stage molecule recently reported to have G4-binding properties, were utilized as controls to assess the specificity of COMPOUND I and Fe(COMPOUND I)3 for G4-stabilizing activity.

Raji cells = experiment: Cytotoxicity study, MTS cell proliferation assay, 5 days; format: cell-based, human; conditions: concentrations up to 300 nM, FIG. 5C
Procedure: (§1) The human Burkitt lymphoma cell line Raji was obtained from the American Type Tissue Culture Collection and cultured in RPMI 1640 medium (ATCC) supplemented with 10% fetal bovine serum (ATCC,) at 37° C., 5% CO2. The COMPOUND I-resistant Raji (Raji/COMPOUND IR) cell line was generated by exposure to progressively higher concentrations of COMPOUND I over a period of 6 months. CAOV3 cells were obtained from ATCC and cultured in complete DMEM supplemented with 10% fetal bovine serum. MCF7 vector controlled and BRCA1 shRNA subclones were obtained from Dr. Simon Powell (Memorial Sloan-Kettering Cancer Center) and cultured in EMBM with 10% fetal bovine serum. MCF10A and hTERT-IMEC clones were obtained from Dr. Ben Ho Park (Johns Hopkins University). HCT116 BRCA2^+/+ cells and BRCA2^−/− cells were obtained from Dr. Samuel Aparicio (British Columbia Cancer Research Centre). PEO1 and PEO4 cells were obtained from Dr. Sharon Cantor (University of Massachusetts) and these cell lines were cultured under the same conditions as previously published. Sakai et al., Functional restoration of BRCA2 protein by secondary BRCA2 mutations in BRCA2-mutated ovarian carcinoma, Cancer Res. 2009; 69 (16):6381-6; Konishi et al., Mutation of a single allele of the cancer susceptibility gene BRCA1 leads to genomic instability in human breast epithelial cells, Proc. Natl. Acad. Sci. 2011; 108 (43):17773-8; Xu et al., CX-5461 is a DNA G-quadruplex stabilizer with selective lethality in BRCA1/2 deficient tumours, Nature Communications 2017; 8:14432, all of which are hereby incorporated by reference.
(§2) Cells were plated and treated with the indicated drugs in 96-well plates for 5 days. Cell viability was measured using CellTiter 96 AQueous one solution (MTS) cell proliferation assay purchased from Promega, and IC50 values were calculated using GraphPad Prism 6 Software.

Raji/COMPOUND IR cells = experiment: as above; format: cell-based, human
Procedure: as §1, §2

[2] = system: MCF10A BRCA1-het #1 and #2 clones vs control; experiment: Sensitivity of BRCA1-proficient and -deficient isogenic clones; format: cell-based, human; conditions: FIG. 3A
Procedure: as §2
(§3) The finding that COMPOUND I produced DNA damage led to the investigation of whether cells deficient in homologous recombination were hypersensitive to this drug. The hypothesis that there would be synthetic lethality between COMPOUND I and BRCA1 deficiency using isogenic pairs of BRCA1-proficient and -deficient human cell lines was tested. […] The conclusion that BRCA1-deficient cells are hypersensitive to COMPOUND I was further supported by the results obtained in MCF7 E7 cells in which BRCA1 expression is stably knocked down by the expression of an shRNAi. […] Whether BRCA2-deficient cells are more sensitive to COMPOUND I was tested using the BRCA2-proficient and BRCA2-deficient ovarian cancer cell lines, PEO4 and PEO1, respectively. PEO1 is BRCA2-deficient and sensitive to cisplatin and a poly(ADP-ribose) polymerase inhibitor AG14361. PEO4 was derived from ascites at the time of relapse with cisplatin resistance and contains a secondary mutation that restores BRCA2 function. […] Thus, loss of either BRCA1 or BRCA2 function renders malignant cells hypersensitive to COMPOUND I.

[3] = system: hTERT-IMEC BRCA1 knock-in clone; experiment: as above; format: cell-based, human; conditions: FIG. 3B
Procedure: as §2, §3

[4] = system: PEO4 and PEO1 ovarian cancer cell lines; experiment: Sensitivity of BRCA2-proficient and -deficient cells; format: cell-based; conditions: FIG. 3D
Procedure: as §2, §3

Cc1cnc(CNC(=O)c2c(=O)c3ccc(N4CCCN(C)CC4)nc3n3c2sc2ccccc23)cn1 [CX-5461]
stabilization of G4 sequences (ΔT1/2) [1]: potent stabilizer of all G4 sequences tested

COc1ccc2c3c([nH]c2c1)[C@H](CC(C)C)N1C(=O)[C@H](CCC(=O)OC(C)(C)C)NC(=O)[C@@H]1C3 [Ko143, reference compound]
toxicity of Ko143 alone (Raji cells): not toxic
toxicity of Ko143 alone (Raji/COMPOUND IR cells; concentrations up to 300 nM, FIG. 5C): not toxic

C[n+]1ccc(-c2c3nc(c(-c4cc[n+](C)cc4)c4ccc([nH]4)c(-c4cc[n+](C)cc4)c4ccc([nH]4)c(-c4cc[n+](C)cc4)c4nc2C=C4)C=C3)cc1 [TMPyP4]
stabilization of G4 sequences (ΔT1/2) [1]: stabilized all G4 motifs except the G4 of the KIT gene promoter

N.N.O=C([O-])C1(C(=O)[O-])CCC1.[Pt+2] [carboplatin, reference compound]
sensitivity of Raji/COMPOUND IR cells relative to Raji (Raji/COMPOUND IR cells): significantly cross-resistant

COc1cc([C@@H]2c3cc4c(cc3[C@@H](O[C@@H]3O[C@@H]5CO[C@@H](C)O[C@H]5[C@H](O)[C@H]3O)[C@H]3COC(=O)[C@H]23)OCO4)cc(OC)c1O [etoposide, reference compound]
sensitivity of Raji/COMPOUND IR cells relative to Raji (Raji/COMPOUND IR cells): hypersensitive

O=C(c1cc(Cc2n[nH]c(=O)c3ccccc23)ccc1F)N1CCN(C(=O)C2CC2)CC1 [olaparib, reference compound]
sensitivity of BRCA1-het knockin clones vs control [2]: more sensitive to olaparib
sensitivity of BRCA1 2-bp knock-in clone [3]: hypersensitive to both olaparib and COMPOUND I
effect of restoration of BRCA2 function (PEO4 vs PEO1) [4]: increased resistance

CC[C@@]1(O)C(=O)OCc2c1cc1n(c2=O)Cc2cc3c(CN(C)C)c(O)ccc3nc2-1 [topotecan, reference compound]
cross-resistance of Raji/COMPOUND IR cells (Raji/COMPOUND IR cells; vs Raji): 3 fold
effect of Ko143 on topotecan resistance (Raji/COMPOUND IR cells; with Ko143, FIG. 5E): reversed this resistance completely
